Measured values published in US11370804B2, “Complex of gadolinium and a chelating ligand derived from a diastereoisomerically enriched PCTA and preparation and purification process” (GUERBET, priority 2020, dated 2022).

What was measured:
[1] = decomplexation kinetics (kinetic inertia) in acidic aqueous solution, pH 1.2, 37° C.; assay type: physicochemical; conditions: same conditions (pH 1.2, 37° C.), comparative
Experimental: Besides, iso4 is the group of isomers which has the best kinetic inertia (also known as kinetic stability) among the four groups isolated by the inventors. Specifically, the inventors evaluated the kinetic inertia of the four groups of isomers by studying their decomplexation kinetics in acidic aqueous solution (pH=1.2), at 37° C. The half-life time values (T1/2) which were determined for each of the groups of isomers are indicated in table 1 below, the half-life time corresponding to the time after which 50% of the amount of complex initially present has been dissociated, according to the following decomplexation reaction (equation 2): […]

[2] = as described in WO 2014/174120 / for comparative purposes; cited from earlier work

Row | Compound | kinetic inertia [1] | log (Ktherm), stability constant [2] | kinetic inertia (dissociation, in words) [1]
1 | O=C([O-])CN1CCN(CC(=O)[O-])CCN([C@H](CO)[C@H](O)CO)CCN(CC(=O)[O-])CC1.[Gd+3] (racemic) [gadobutrol] | 18 h | – | –
2 | O=C([O-])CN1CCN(CC(=O)[O-])CCN(CC(=O)O)CCN(CC(=O)[O-])CC1.[Gd+3] [DOTA-Gd, gadolinium complex of 1,4,7,10-tetraazacyclododecane-N,N′,N″,N′″-tetraacetic acid] | 96 h | 25.6 | –
3 | CNC(=O)CN(CCN(CCN(CC(=O)[O-])CC(=O)NC)CC(=O)[O-])CC(=O)[O-].[Gd+3] [gadodiamide] | – | – | dissociate instantaneously
4 | O=C([O-])CN(CCN(CC(=O)[O-])CC(=O)O)CCN(CC(=O)[O-])CC(=O)O.[Gd+3] [gadopentetate] | – | – | dissociate instantaneously
